Assay results from ChEMBL document CHEMBL5143570, “Development of naringenin-O-carbamate derivatives as multi-target-directed liagnds for the treatment of Alzheimer's disease” (Bioorg Med Chem Lett, 2022).
Calls of active or inactive are those of the source. The rule behind the calls is not given here.

Columns and labels:
[1] = Antioxidant activity assessed as trolox equivalent of ORAC radical scavenging activity by ORAC-FL assay; type: functional
Acetylcholinesterase [2] = biological target: T1, Acetylcholinesterase (Rattus norvegicus, UniProt P37136); assay: Inhibition of rat cortex AChE using acetylthiocholine as substrate incubated for 15 mins by DTNB reagent based Ellman's method; type: tissue-based
T1 sequence (P37136 whole entry): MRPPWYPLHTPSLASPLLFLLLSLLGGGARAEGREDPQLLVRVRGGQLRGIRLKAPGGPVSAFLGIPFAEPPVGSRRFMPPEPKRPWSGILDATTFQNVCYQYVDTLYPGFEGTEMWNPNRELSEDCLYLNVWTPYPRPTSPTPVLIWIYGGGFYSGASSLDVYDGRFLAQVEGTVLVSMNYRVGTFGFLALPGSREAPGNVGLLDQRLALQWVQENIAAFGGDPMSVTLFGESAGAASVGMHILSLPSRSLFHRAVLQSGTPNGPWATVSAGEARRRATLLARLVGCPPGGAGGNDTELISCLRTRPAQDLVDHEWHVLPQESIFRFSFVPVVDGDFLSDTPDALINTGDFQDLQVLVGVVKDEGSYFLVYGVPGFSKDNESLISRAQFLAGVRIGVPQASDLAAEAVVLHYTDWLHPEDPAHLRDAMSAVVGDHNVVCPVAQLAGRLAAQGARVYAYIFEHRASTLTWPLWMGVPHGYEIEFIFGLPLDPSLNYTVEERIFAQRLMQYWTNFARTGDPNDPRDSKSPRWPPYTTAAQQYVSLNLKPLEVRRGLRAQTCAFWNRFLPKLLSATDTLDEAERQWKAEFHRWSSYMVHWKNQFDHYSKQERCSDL

Butyrylcholinesterase = Butyrylcholinesterase (Rattus norvegicus, UniProt Q9JKC1); assay: Inhibition of rat serum Butyrylcholine esterase using butyrylthiocholine as substrate incubated for 15 mins by DTNB reagent based Ellman's method; type: cell-free
Rattus norvegicus = species: Rattus norvegicus; assay: Selectivity index, ratio of IC50 for inhibition of rat serum butyrylcholine esterase to IC50 for inhibition of rat cortex AChE
Acetylcholinesterase [3] = biological target: T2, Acetylcholinesterase (Homo sapiens, UniProt P22303); assay: Pseudo-irreversible inhibition of human AChE assessed as restoration of enzyme activity at 0.1 time of IC50 concentration incubated for 120 mins by dilution method relative to control; design: scale not given: the % may be the effect or the level left
Acetylcholinesterase [4] = biological target: T2, Acetylcholinesterase; assay: Inhibition of human erythrocyte AChE using acetylthiocholine as substrate incubated for 15 mins by DTNB reagent based Ellman's method; type: cell-based
Cholinesterase = Cholinesterase (Homo sapiens, UniProt P06276); assay: Inhibition of human serum BuChE using butyrylthiocholine as substrate incubated for 15 mins by DTNB reagent based Ellman's method; type: cell-free
[5] = biological target: Amyloid-beta precursor protein (Homo sapiens) (UniProt P05067); assay: Inhibition of amyloid beta (1 to 42 ) (unknown origin) self-induced aggregation at 25 uM by thioflavin-T fluorescence method relative to control
[6] = biological target: Amyloid-beta precursor protein (Homo sapiens) (UniProt P05067); assay: Inhibition of amyloid beta (1 to 42) (unknown origin) self-induced fibril formation at 25 uM incubated for 24 hrs by transmission electron microscopic analysis
[7] = Cytotoxicity against mouse HT-22 cells assessed as reduction in cell viability by MTT assay; type: toxicity, cell-based
[8] = Effect on tau protein expression in pRK5-GFP-Tau plasmid transfected mouse HT-22 cells assessed as reduction in fluorescence intensity at 5 uM incubated for 24 hrs by fluorescence microscopic analysis (reference value: 36.8); type: functional
[9] = Effect on tau protein expression in pRK5-GFP-Tau plasmid transfected mouse HT-22 cells assessed as reduction in fluorescence intensity at 10 uM incubated for 24 hrs by fluorescence microscopic analysis (reference value: 36.8); type: functional
[10] = Effect on tau protein expression in pRK5-GFP-Tau plasmid transfected mouse HT-22 cells assessed as reduction in fluorescence intensity at 20 uM incubated for 24 hrs by fluorescence microscopic analysis (reference value: 36.8); type: functional
HT-22 [11] = assay: Effect on tau protein expression in pRK5-GFP-Tau plasmid transfected mouse HT-22 cells assessed as fluorescence intensity by measuring decrease in GFP level at 5 to 20 uM incubated for 24 hrs by western blot analysis; type: functional, cell-based; conditions: dose 5-20 µM
[12] = Effect on tau protein expression in pRK5-GFP-Tau P301L plasmid transfected mouse HT-22 cells assessed as reduction in fluorescence intensity at 5 uM by fluorescence microscopic analysis (reference value: 35.0); type: functional
[13] = Effect on tau protein expression in pRK5-GFP-Tau P301L plasmid transfected mouse HT-22 cells assessed as reduction in fluorescence intensity at 10 uM by fluorescence microscopic analysis (reference value: 35.0); type: functional
[14] = Effect on tau protein expression in pRK5-GFP-Tau P301L plasmid transfected mouse HT-22 cells assessed as reduction in fluorescence intensity at 20 uM by fluorescence microscopic analysis (reference value: 35.0); type: functional
[15] = Effect on APP protein expression in pEGFP-N1-APP plasmid transfected mouse HT-22 cells assessed as decrease in fluorescence intensity at 5 uM incubated for 24 hrs by fluorescence microscopic analysis (reference value: 30.7); type: functional
[16] = Effect on APP protein expression in pEGFP-N1-APP plasmid transfected mouse HT-22 cells assessed as decrease in fluorescence intensity at 10 uM incubated for 24 hrs by fluorescence microscopic analysis (reference value: 30.7); type: functional
[17] = Effect on APP protein expression in pEGFP-N1-APP plasmid transfected mouse HT-22 cells assessed as decrease in fluorescence intensity at 20 uM incubated for 24 hrs by fluorescence microscopic analysis (reference value: 30.7); type: functional
HT-22 [18] = assay: Effect on APP protein expression in pEGFP-N1-APP plasmid transfected mouse HT-22 cells assessed as fluorescence intensity by measuring decrease in GFP level incubated for 24 hrs by western blot analysis; type: functional, cell-based; conditions: dose 5-20 µM, DDE = dose-dependent effect
PC-12 [19] = assay: Cytotoxicity against rat PC-12 cells assessed as reduction in cell viability measured upto 40 uM incubated for 72 hrs by MTT assay; type: toxicity, cell-based; conditions: pc-12, 72 h
PC-12 [20] = assay: Neuroprotective activity against H2O2-induced cytotoxicity in rat PC-12 cells assessed as increase in cell viability at 5 uM by MTT assay relative to control; type: functional
PC-12 [21] = assay: Neuroprotective activity against H2O2-induced cytotoxicity in rat PC-12 cells assessed as increase in cell viability at 10 uM by MTT assay relative to control; type: functional
PC-12 [22] = assay: Neuroprotective activity against H2O2-induced cytotoxicity in rat PC-12 cells assessed as increase in cell viability at 100 uM by MTT assay relative to control; type: functional, cell-based
Homo sapiens = species: Homo sapiens; assay: Selectivity index, ratio of IC50 for inhibition of human serum BuChE to IC50 for inhibition of human erythrocyte AChE

Chain of Butyrylcholinesterase (Q9JKC1 whole entry): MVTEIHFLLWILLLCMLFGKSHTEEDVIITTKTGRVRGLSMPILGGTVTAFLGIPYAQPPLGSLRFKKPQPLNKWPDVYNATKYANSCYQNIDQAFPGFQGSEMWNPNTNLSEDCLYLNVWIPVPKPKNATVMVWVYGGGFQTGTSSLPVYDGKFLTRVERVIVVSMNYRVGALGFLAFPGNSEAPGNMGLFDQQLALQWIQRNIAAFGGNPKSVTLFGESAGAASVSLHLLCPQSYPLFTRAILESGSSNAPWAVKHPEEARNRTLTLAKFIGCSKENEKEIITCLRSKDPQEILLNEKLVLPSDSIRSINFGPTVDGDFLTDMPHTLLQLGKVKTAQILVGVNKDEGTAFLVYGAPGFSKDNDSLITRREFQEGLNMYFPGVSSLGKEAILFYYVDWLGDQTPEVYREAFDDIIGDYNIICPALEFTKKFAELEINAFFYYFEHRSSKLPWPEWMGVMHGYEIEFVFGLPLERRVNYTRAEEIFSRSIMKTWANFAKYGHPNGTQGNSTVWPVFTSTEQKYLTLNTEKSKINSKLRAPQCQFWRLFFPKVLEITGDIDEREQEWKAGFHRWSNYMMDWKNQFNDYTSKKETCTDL
T2 sequence (P22303 whole entry): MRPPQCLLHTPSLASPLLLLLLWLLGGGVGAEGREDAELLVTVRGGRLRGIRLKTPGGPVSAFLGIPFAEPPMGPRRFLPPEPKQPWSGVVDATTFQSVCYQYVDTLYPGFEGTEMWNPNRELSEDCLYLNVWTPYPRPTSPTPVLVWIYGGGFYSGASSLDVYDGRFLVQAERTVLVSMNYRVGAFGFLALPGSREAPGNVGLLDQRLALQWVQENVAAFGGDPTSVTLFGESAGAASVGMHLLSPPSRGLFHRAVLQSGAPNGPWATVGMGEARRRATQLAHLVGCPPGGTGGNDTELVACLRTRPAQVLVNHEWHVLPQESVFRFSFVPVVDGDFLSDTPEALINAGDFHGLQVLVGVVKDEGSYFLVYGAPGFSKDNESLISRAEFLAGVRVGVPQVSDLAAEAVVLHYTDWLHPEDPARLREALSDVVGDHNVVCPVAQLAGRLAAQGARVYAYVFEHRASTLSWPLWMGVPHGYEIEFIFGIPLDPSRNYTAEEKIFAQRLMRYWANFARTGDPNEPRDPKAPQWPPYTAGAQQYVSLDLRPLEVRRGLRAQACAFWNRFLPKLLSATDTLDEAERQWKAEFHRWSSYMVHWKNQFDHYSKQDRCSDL
Chain of Cholinesterase (P06276 whole entry): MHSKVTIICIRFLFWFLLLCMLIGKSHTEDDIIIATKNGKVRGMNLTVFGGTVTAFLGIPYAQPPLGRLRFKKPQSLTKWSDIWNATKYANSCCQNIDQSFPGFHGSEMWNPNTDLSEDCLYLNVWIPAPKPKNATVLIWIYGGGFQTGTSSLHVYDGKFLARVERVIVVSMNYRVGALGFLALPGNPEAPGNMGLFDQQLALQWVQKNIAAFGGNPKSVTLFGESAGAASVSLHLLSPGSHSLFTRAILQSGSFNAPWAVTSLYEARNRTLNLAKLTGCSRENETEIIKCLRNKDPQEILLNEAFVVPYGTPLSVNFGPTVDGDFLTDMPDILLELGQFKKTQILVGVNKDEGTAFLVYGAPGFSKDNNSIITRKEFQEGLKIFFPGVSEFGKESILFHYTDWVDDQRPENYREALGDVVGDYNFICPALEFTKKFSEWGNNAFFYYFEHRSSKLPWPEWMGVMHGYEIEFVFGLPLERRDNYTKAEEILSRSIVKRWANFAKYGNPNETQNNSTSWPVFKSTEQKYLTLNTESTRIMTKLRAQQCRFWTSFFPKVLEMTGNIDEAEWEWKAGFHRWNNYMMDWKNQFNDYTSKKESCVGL
Chain of Amyloid-beta precursor protein (Homo sapiens) (P05067 whole entry): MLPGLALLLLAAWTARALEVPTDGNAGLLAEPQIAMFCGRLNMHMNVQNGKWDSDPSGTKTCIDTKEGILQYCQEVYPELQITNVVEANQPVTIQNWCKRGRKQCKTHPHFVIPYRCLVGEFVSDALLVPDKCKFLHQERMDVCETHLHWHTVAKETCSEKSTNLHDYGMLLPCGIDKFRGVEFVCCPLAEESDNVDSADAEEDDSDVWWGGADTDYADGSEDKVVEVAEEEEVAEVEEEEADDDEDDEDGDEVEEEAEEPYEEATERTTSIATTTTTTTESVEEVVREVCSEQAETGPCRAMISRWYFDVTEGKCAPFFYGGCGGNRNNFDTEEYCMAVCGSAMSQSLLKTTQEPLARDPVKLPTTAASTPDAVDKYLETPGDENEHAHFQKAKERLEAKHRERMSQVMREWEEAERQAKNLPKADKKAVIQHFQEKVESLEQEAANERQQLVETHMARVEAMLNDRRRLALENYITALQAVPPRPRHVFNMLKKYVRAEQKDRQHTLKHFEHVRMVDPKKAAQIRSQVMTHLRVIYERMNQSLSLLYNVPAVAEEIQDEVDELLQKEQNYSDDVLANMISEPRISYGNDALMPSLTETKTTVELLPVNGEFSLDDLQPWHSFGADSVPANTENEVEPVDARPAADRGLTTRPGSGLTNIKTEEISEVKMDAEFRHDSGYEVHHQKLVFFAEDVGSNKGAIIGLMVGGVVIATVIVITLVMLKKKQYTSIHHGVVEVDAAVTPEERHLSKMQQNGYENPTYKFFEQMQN

Compound	Activity [1]	IC50 (Acetylcholinesterase [2]) [µM]	IC50 (Butyrylcholinesterase) [µM]	Ratio IC50 (Rattus norvegicus)	also measured
CCN(CC)C(=O)Oc1cc(O)c2c(c1)OC(c1ccc(O)cc1)CC2=O (stereo not given)	2.5	15.1	26.7	1.8	
CCN(C)C(=O)Oc1ccc(-c2coc3cc(OC(=O)N(C)CC)cc(OC(=O)N(C)CC)c3c2=O)cc1	0.3	8.7	16.9	1.9	
CCN(CC)C(=O)Oc1ccc(C2CC(=O)c3c(O)cc(OC(=O)N(CC)CC)cc3O2)cc1 (stereo not given)	1.1	10.7	22.4	2.1	
CON(C)C(=O)Oc1ccc(-c2cc(=O)c3c(O)cc(OC(=O)N(C)OC)cc3o2)cc1	1.1	9.3	19.7	2.1	
O=c1c(-c2ccc(O)cc2)coc2cc(O)cc(O)c12 [GENISTEIN]	6.2	> 50	> 50		
CCN(C)C(=O)Oc1cc(O)c2c(c1)OC(c1ccc(O)cc1)CC2=O (stereo not given)	2.7	11.6	28.2	2.4	
O=C1CC(c2ccc(OC(=O)N3CCCC3)cc2)Oc2cc(OC(=O)N3CCCC3)cc(O)c21 (stereo not given)	1.1	14.5	19.8	1.4	
O=C1CC(c2ccc(OC(=O)N3CCOCC3)cc2)Oc2cc(OC(=O)N3CCOCC3)cc(O)c21 (stereo not given)	1	11.3	23.6	2.1	
CON(C)C(=O)Oc1ccc(C2CC(=O)c3c(O)cc(OC(=O)N(C)OC)cc3O2)cc1 (stereo not given)	1.2	9.9	18.1	1.8	
O=C1CC(c2ccc(O)cc2)Oc2cc(O)cc(O)c21 (stereo not given)	5.1	> 50	> 50		
CCN(C)C(=O)Oc1cccc([C@H](C)N(C)C)c1					Activity (Acetylcholinesterase [3]): 76.3%
CCN(C)C(=O)Oc1ccc(C2CC(=O)c3c(OC(=O)N(C)CC)cc(OC(=O)N(C)CC)cc3O2)cc1 (stereo not given)	0.2	6.7	20.2		IC50 (Acetylcholinesterase [4]): 10.6 µM; IC50 (Cholinesterase): 24.5 µM; inhibition [5]: 42.1%; Activity (Acetylcholinesterase [3]): 75.9%; inhibition [6]: Active; IC50 [7]: 215 µM; Flu intensity [8]: 23.7; Flu intensity [9]: 20.7; Flu intensity [10]: 6.48; Activity (HT-22 [11]): Active; Flu intensity [12]: 18.7; Flu intensity [13]: 17.6; Flu intensity [14]: 16; Flu intensity [15]: 22.3; Flu intensity [16]: 22.1; Flu intensity [17]: 20.7; Activity (HT-22 [18]): Dde; Activity (PC-12 [19]): Non-Toxic; Activity (PC-12 [20]): 59.3%; Activity (PC-12 [21]): 64.1%
VITAMIN E					Activity (PC-12 [22]): 67.3%
CCN(C)C(=O)Oc1ccc(-c2cc(=O)c3c(O)cc(OC(=O)N(C)CC)cc3o2)cc1	1.3	5.7	15.6	2.7	IC50 (Acetylcholinesterase [4]): 7.9 µM; IC50 (Cholinesterase): 18.7 µM; Ratio IC50 (Homo sapiens): 2.4
CCN(C)C(=O)Oc1ccc(-c2cc(=O)c3c(OC(=O)N(C)CC)cc(OC(=O)N(C)CC)cc3o2)cc1	0.2	6.9	14.3	2.1	IC50 (Acetylcholinesterase [4]): 12.3 µM; IC50 (Cholinesterase): 20.6 µM; Ratio IC50 (Homo sapiens): 1.7
O=C1CC(c2ccc(OC(=O)N(c3ccccc3)c3ccccc3)cc2)Oc2cc(OC(=O)N(c3ccccc3)c3ccccc3)cc(O)c21 (stereo not given)	1.1	18.2	25.2	1.4	
CON(C)C(=O)Oc1ccc(-c2coc3cc(OC(=O)N(C)OC)cc(O)c3c2=O)cc1	1	13.5	27.1	2	
CN(C)C(=O)Oc1ccc(C2CC(=O)c3c(O)cc(OC(=O)N(C)C)cc3O2)cc1 (stereo not given)	0.9	14.2	26.5		
CCN(C)C(=O)Oc1ccc(-c2coc3cc(OC(=O)N(C)CC)cc(O)c3c2=O)cc1	1.2	11.2	29.3	2.6	
O=c1cc(-c2ccc(O)cc2)oc2cc(O)cc(O)c12 [APIGENIN]	5.5	> 50	> 50		
